Results on eight compounds are retold here after article PMC10288926 (Journal of Enzyme Inhibition and Medicinal Chemistry, 2023).

Where two headings read alike, the source gives them in different places. Bounds are passed on as bounds.

Assay [1] has as its system phosphorylation of ROS1 and ERK in CD74-ROS1^L2026M cell. The experiment in a line: Western blot of ROS1 and ERK phosphorylation, CD74-ROS1^L2026M Ba/F3 cells. It is filed as cell-based. Background: Immunoblotting shows a protein as a band on a membrane.
The next assay deals with ALK^WT (Homo sapiens, UniProt Q9UM73). The experiment in a line: HTRF KinEASE-TK kinase inhibitory assay, ALK wild type. The assay is classed as biochemical. The conditions noted are these: for ALK Inhibition (1μM): kinase inhibition % at 1 μM; for inhibition at 1 µM: read-out: ALK Inhibition (1μM). (TR-FRET usually uses a lanthanide donor and a delayed reading to cut background.)

The next assay deals with ALK^L1196M (Homo sapiens, UniProt Q9UM73, L1196M). Put plainly: HTRF KinEASE-TK kinase inhibitory assay, ALK^L1196M. The assay is classed as biochemical.
The target of another assay is Ba/F3 CD74-ROS1^WT cell (Homo sapiens, UniProt P04233+P08922). The experiment in a line: Antiproliferative CCK-8 assay, Ba/F3 CD74-ROS1^WT. It is filed as cell-based. The conditions noted are these: 72 h exposure, IC50, at least three independent experiments; for IC50: read-out: Ba/F3 cellular activities (nM) CD74-ROS1^WT. Background: Tetrazolium dyes change colour on reduction, which living cells bring about.

Another assay addresses ALK^G1202R (Homo sapiens, UniProt Q9UM73, G1202R). The experiment in a line: HTRF KinEASE-TK kinase inhibitory assay, ALK^G1202R. It is filed as biochemical.
The target of assay [2] is Ba/F3 CD74-ROS1^L2026M cell (Homo sapiens, UniProt P04233+P08922, L2026M). Put plainly: Antiproliferative CCK-8 assay, Ba/F3 CD74-ROS1^L2026M. The assay is classed as cell-based. The conditions noted are these: read-out: Ba/F3 cellular activities (nM) CD74-ROS1^L2026M; 72 h exposure, IC50, at least three independent experiments.
Assay [3] deals with NCI-H3122 cell line harbouring EML4-ALK fusion. The experiment in a line: Antiproliferative MTT assay, NCI-H3122. The assay is classed as cell-based, human. The conditions noted are these: read-out: Cellular IC50 (μM) NCI-H3122.
For assay [4], the target named is Ba/F3 EML4-ALK^L1196M cell (Homo sapiens, UniProt Q9HC35+Q9UM73, L1196M). It is filed as cell-based. As to conditions: read-out: Ba/F3 cellular activities (nM) EML4-ALK^L1196M; 72 h exposure, IC50, at least three independent experiments.
In a further assay the target is Ba/F3 EML4-ALK^WT cell (Homo sapiens, UniProt Q9HC35+Q9UM73). The assay is classed as cell-based. The conditions noted are these: read-out: Ba/F3 cellular activities (nM) EML4-ALK^WT; 72 h exposure, IC50, at least three independent experiments.
Assay [5] deals with phosphorylation of ROS1 and ERK in CD74-ROS1^WT cell. Put plainly: Western blot of ROS1 and ERK phosphorylation, CD74-ROS1^WT Ba/F3 cells. It is filed as cell-based.
A further assay relates to HCC-78 cells. Put plainly: Apoptosis assay. The assay is classed as cell-based, human.
Assay [6] has as its system phosphorylation of ALK in EML4-ALK^L1196M cell. The experiment in a line: Western blot of phosphorylation, EML4-ALK^L1196M Ba/F3 cells. The assay is classed as cell-based.
The target in the next assay is ROS1 (Homo sapiens, UniProt P08922). Put plainly: HTRF KinEASE-TK kinase inhibitory assay, ROS1. The assay is classed as biochemical. As to conditions: for ROS1 Inhibition (1μM): kinase inhibition % at 1 μM; for inhibition at 1 µM: read-out: ROS1 Inhibition (1μM).
For assay [7], the target named is Ba/F3 CD74-ROS1^G2032R cell (Homo sapiens, UniProt P04233+P08922, G2032R). Put plainly: Antiproliferative CCK-8 assay, Ba/F3 CD74-ROS1^G2032R. The conditions noted are these: for IC50: read-out: Ba/F3 cellular activities (nM) CD74-ROS1^G2032R, 72 h exposure, IC50, at least three independent experiments. It is filed as cell-based.
Assay [8] deals with ROS1 phosphorylation in CD74-ROS1^G2032R cell. The experiment in a line: Western blot of ROS1 phosphorylation, CD74-ROS1^G2032R Ba/F3 cells. It is filed as cell-based. The conditions noted are these: up to 1000 nM.
Another assay deals with NCI-H3122 cells. The experiment in a line: Apoptosis assay. It is filed as cell-based, human. As to conditions: 48 h, vehicle 11.24%.
A further assay addresses c-MET (Homo sapiens, UniProt P08581). The experiment in a line: HTRF kinase inhibitory assay, c-MET. It is filed as biochemical. The conditions noted are these: for c-MET Inhibition (1μM): kinase inhibition % at 1 μM; for inhibition at 1 µM: read-out: c-MET Inhibition (1μM).
The subject of assay [9] is HCC-78 cell line harbouring SLC34A2-ROS1 fusion. The experiment in a line: Antiproliferative MTT assay, HCC-78. The assay is classed as cell-based, human. As to conditions: read-out: Cellular IC50 (μM) HCC-78.
The subject of the next assay is ROS1-G2032R. As to conditions: read-out: cellular IC50 ROS1-G2032R; cited from earlier work.
The subject of the next assay is ALK. As to conditions: read-out: enzymatic IC50 against ALK; cited from earlier work.
[10] abbreviates: read-out: Enzymatic activities (nM) ALK^L1196M, IC50, average of two independent experiments.
Where [11] appears, read: read-out: Enzymatic activities (nM) ALK^G1202R, IC50, average of two independent experiments.
Where [12] appears, read: MTT, 72 h, mean of at least three independent experiments.
[13] abbreviates: average of two independent experiments.
The mark [14] stands for this setting: read-out: ROS1 IC50, average of two independent experiments.

With “(R)-5–(5-(1-([1,1'-biphenyl]-2-yl)ethoxy)-6-aminopyridin-3-yl)-1'-methylspiro[indoline-3,4'-piperidin]-2-one [C01]”, in assay [1], the “phosphorylation of ROS1 and ERK, CD74-ROS1^L2026M cell” value was “attenuated phosphorylation of ROS1 and its key downstream molecule ERK in a dose-dependent manner”. The “ALK Inhibition (1μM)” value at ALK^WT is 101%. For the same compound, the IC50 at ALK^WT (read-out: ALK IC50) stood at 25.6 nM; on ALK^L1196M (setting [10]), 404 nM; on Ba/F3 CD74-ROS1^WT cell it was 7.6 ± 0.6 nM; at ALK^G1202R (setting [11]), 49.1 nM; in assay [2], 33.1 ± 1.4 nM; in assay [3] (setting [12]), 3 ± 0.1 µM. Besides, the IC50 is 120 ± 17.3 nM in assay [4]; 145 ± 36 nM on Ba/F3 EML4-ALK^WT cell; 4.7 nM at ROS1 (setting [14]); 42.3 nM in [7]; 3.9 ± 0.5 µM in [9] (setting [12]). At Ba/F3 CD74-ROS1^WT cell, the “Ba/F3 cellular activities (nM) CD74-ROS1^WT” value is “comparable to Crizotinib”. In addition, the “fold potency superior to Crizotinib, ALK^G1202R enzyme” value on ALK^G1202R (ratio of enzymatic IC50 to Crizotinib) turned out to be 10 fold. In assay [5], the “phosphorylation of ROS1 and ERK, CD74-ROS1^WT cell” value is “attenuated phosphorylation of ROS1 and its key downstream molecule ERK in a dose-dependent manner”. Besides, the “percentage of apoptotic HCC-78 cell” value in the assay on HCC-78 cells (2.0 μM (IC50/2), 48 h, vehicle 10.7%) is 15.9%; with HCC-78 cells (7.8 μM (2 IC50), 48 h, vehicle 10.7%), 31.7%; with HCC-78 cells (C01 3.9 μM (1 IC50) vs Crizotinib 4.5 μM (1 IC50)) it was “superior to that of Crizotinib treatment group”. In addition, the “phosphorylation, EML4-ALK^L1196M cell” value in assay [6] was “persistent potency”. Moreover, the “ROS1 Inhibition (1μM)” value at ROS1 (setting [13]) amounted to 100%. Further, in [7] (ratio of cellular IC50 to Crizotinib), the “fold more potent than Crizotinib, CD74-ROS1^G2032R cell” value is on record as “about 30 fold”. In addition, in [8], the “ROS1 phosphorylation, CD74-ROS1^G2032R cell” value is “significant inhibition of ROS1 phosphorylation occurred in a dose-dependent manner”. Besides, the “percentage of apoptotic NCI-H3122 cell” value stood at 15.61% in the assay on NCI-H3122 cells (1.5 μM (IC50/2)), 29.47% in the assay on NCI-H3122 cells (3.0 μM (1 IC50)) and 35.13% with NCI-H3122 cells (6.0 μM (2 IC50)). The “c-MET Inhibition (1μM)” value at c-MET amounted to 70%.
On to `C[C@H]1Oc2cc(cnc2N)-c2c(nn(C)c2C#N)CN(C)C(=O)c2ccc(F)cc21` [Lorlatinib], for which the IC50 with ROS1-G2032R was 203 nM.
On to “(R)-5–(6-amino-5–(1-(4'-methoxy-[1,1'-biphenyl]-2-yl)ethoxy)pyridin-3-yl)-1'-methylspiro[indoline-3,4'-piperidin]-2-one [C03]”, for which, on ALK^WT, the “ALK Inhibition (1μM)” value was found to be 94%. In addition, the IC50 is 56.1 nM at ALK^WT (read-out: ALK IC50); 18.3 ± 1.2 nM at Ba/F3 CD74-ROS1^WT cell; 492 nM at ALK^G1202R (setting [11]); 38.3 ± 5.9 nM in assay [2]; 1.9 ± 0.1 µM in assay [3] (setting [12]); 185 ± 22.2 nM in assay [4]. The IC50 at Ba/F3 EML4-ALK^WT cell worked out at 228 ± 47.3 nM; on ROS1 (setting [14]), 11.6 nM; in [7], 94.4 ± 31.9 nM; in assay [9] (setting [12]) it was 4.6 ± 0.23 µM. In addition, the “ROS1 Inhibition (1μM)” value at ROS1 (setting [13]) amounted to 101%. Moreover, the “c-MET Inhibition (1μM)” value on c-MET is 63%.
Turning to “(R)-5–(6-amino-5–(1-(4'-fluoro-[1,1'-biphenyl]-2-yl)ethoxy)pyridin-3-yl)-1'-methylspiro[indoline-3,4'-piperidin]-2-one [C02]”, the “ALK Inhibition (1μM)” value at ALK^WT (1 µM) is reported as 98%. Also, the IC50 at ALK^WT (read-out: ALK IC50) came out at 30.1 nM; on ALK^L1196M (setting [10]), 643 nM; at Ba/F3 CD74-ROS1^WT cell, 5.4 ± 1 nM; on ALK^G1202R (setting [11]), 276 nM; in assay [2], 21.3 ± 4.7 nM; in assay [3] (setting [12]), 2.8 ± 0.9 µM. The IC50 in [4] was 148 ± 27.3 nM; on Ba/F3 EML4-ALK^WT cell it was 191 ± 51.8 nM; at ROS1 (setting [14]), 4.6 nM; in [7] it was 107 ± 12.6 nM; in assay [9] (setting [12]), 4.4 ± 0.5 µM. In addition, on Ba/F3 CD74-ROS1^WT cell, the “Ba/F3 cellular activities (nM) CD74-ROS1^WT” value is “comparable to Crizotinib”. Moreover, the “ROS1 Inhibition (1μM)” value at ROS1 (average of two independent experiments, 1 µM) is on record as 102%. The “c-MET Inhibition (1μM)” value at c-MET (1 µM) worked out at 69%.
Regarding `C[C@@H](Oc1cc(-c2cnn(C3CCNCC3)c2)cnc1N)c1c(Cl)ccc(F)c1Cl` [Crizotinib, reference compound], in assay [1], the “phosphorylation of ROS1 and ERK, CD74-ROS1^L2026M cell” value was “attenuated phosphorylation of ROS1 and its key downstream molecule ERK in a dose-dependent manner”. Besides, in assay [5], the “phosphorylation of ROS1 and ERK, CD74-ROS1^WT cell” value was “attenuated phosphorylation of ROS1 and its key downstream molecule ERK in a dose-dependent manner”. Besides, the inhibition at 1 µM on ROS1 came out at 101%. In addition, in [9] (Homo sapiens, HCC78, 72 h), the IC50 was determined as 4.5 ± 1.4 µM.
As to `C[C@@H](Oc1cc(-c2cnn(C)c2)cnc1N)c1ccccc1-c1ccccc1` [B08, (R)-3–(1-([1,1'-biphenyl]-2-yl)ethoxy)-5–(1-methyl-1H-pyrazol-4-yl)pyridin-2-amine], the IC50 was 67.4 nM against ALK^WT; over 1000 nM against ALK^L1196M; 20.9 ± 1.7 nM on Ba/F3 CD74-ROS1^WT cell; 195 nM against ALK^G1202R; 168 ± 56.3 nM in assay [2]; 5.7 ± 0.6 µM in [3] (Homo sapiens, NCI-H3122, 72 h). Besides, the IC50 was found to be 1810 ± 270 nM in assay [4]; 681 ± 151 nM at Ba/F3 EML4-ALK^WT cell; 37.4 nM against ROS1; 317 ± 92.1 nM in assay [7]; 4.6 ± 0.8 µM in assay [9] (Homo sapiens, HCC78, 72 h). For the same compound, the “fold more potent than compound B03, ALK IC50” value at ALK^WT is given as about 4 fold. For the same compound, the inhibition at 1 µM on ALK^WT is 100%; at ROS1, 103%; on c-MET it was 64%. Also, the “fold more potent than compound B03, ROS1 IC50” value at ROS1 was “about 10 fold”.
For the compound `C[C@@H](Oc1cc(-c2ccc3c(c2)NC(=O)C32CCN(C)CC2)cnc1N)c1c(Cl)ccc(F)c1Cl` [SMU-B, reference compound], the IC50 is 1.48 nM on ROS1 (setting [14]) and under 0.5 nM with ALK.
With `CCCn1cc(-c2cnc(N)c(O[C@H](C)c3ccccc3F)c2)cn1` [A08, (R)-3–(1-(2-fluorophenyl)ethoxy)-5–(1-propyl-1H-pyrazol-4-yl)pyridin-2-amine], the figures for the inhibition at 1 µM at ALK^WT, at ROS1 and on c-MET were 58%, 91% and 22%, respectively. Further, the IC50 in assay [3] (Homo sapiens, NCI-H3122, 72 h) turned out to be 36.8 ± 2.5 µM; at ROS1, 120 nM; in assay [9] (Homo sapiens, HCC78, 72 h), 13.9 ± 6.3 µM.

A word on the inhibition: it is the change of the read-out against control, counted positive when it falls.
